# Like-named read-outs stand apart in the source and are kept apart here.
# What was measured:
# [1] = Minimum propagator concentration for hydrogel formation; type: physicochemical; details: 1 minute crosslinking at ˜0.43 W
# Description: (§1) Each of the three propagators (NVC, NVP, EGDA) were combined with G5(80) [5% GelMA, 80% DoM] at 10 uL/mL propagator concentration, and then gelled. Average Young's Modulus (kPa) for resulting hydrogels were as follows: EGDA [7.2494 kPa]; NVP [6.4995 kPa]; NVC [3.4744 kPa]. NVP and EGDA were also tested for a minimum concentration in G5 (10) and G5(80) which would still allow for hydrogel formation (1 minute crosslinking at ˜0.43 W). Minimum propagator concentrations for hydrogel formation were as follows: G5 (10) [NVP—5 uL/mL; EGDA—1.5 uL/mL]; G5 (80) [NVP—0.3 uL/mL; EGDA—0.1 uL/mL]
# [2] = Young's Modulus of hydrogels with radical propagators; type: physicochemical; details: propagator at 10 uL/mL in G5(80) [5% GelMA, 80% DoM], gelled
# Description: as §1
# RPE cells = experiment: Cytotoxicity studies of propagators with RPE cells
# Description: Cytotoxicity studies were also completed with RPE cells for: NVC, NVP, EGDA, and phenylacetyl bromide (BAP), with 10% DMSO as a control.
compound,measurement,setting,value
"C=CN1CCCC1=O [NVP, N-Vinylpyrrolidone]",Minimum propagator concentration for hydrogel formation,[1]; in G5 (10),5 uL/mL
same,Minimum propagator concentration for hydrogel formation,[1]; in G5 (80),0.3 uL/mL
same,Average Young's Modulus,[2],6.4995 kPa
same,Cell viability (cytotoxicity),RPE cells,higher average cell viability than NVC
"O=C(Br)Cc1ccccc1 [BAP, phenylacetyl bromide]",Cell viability (cytotoxicity),"RPE cells; after 18 hours of cell incubation, RPE cells, FIG. 19",higher average cell viability than NVC
"C=CN1CCCCCC1=O [NVC, N-vinylcaprolactam]",Average Young's Modulus,[2],3.4744 kPa
"C=CC(=O)OCCOC(=O)C=C [EGDA, Ethylene Glycol Diacrylate]",Minimum propagator concentration for hydrogel formation,[1]; in G5 (10),1.5 uL/mL
same,Minimum propagator concentration for hydrogel formation,[1]; in G5 (80),0.1 uL/mL
same,Average Young's Modulus,[2],7.2494 kPa
same,Cell viability (cytotoxicity),RPE cells,low cell viability
